Where “and” joins values, the source holds several entries; their conditions need not be identical. Identical values can stand only once. Like-named read-outs stand apart in the source and are kept apart here.

A word on the % Inhibition: it is the relative decrease from the control value, in per cent. Lower therefore signals little suppression.

Data set [1] has as its system Neonatal human dermal fibroblasts. Nature of the data set: Collagen synthesis (secreted procollagen 1 immunoassay). It is filed as cell-based. The following applies: 0.2 to 20 mM, 48 hours, serum-free medium. How it is done:
Neonatal human dermal fibroblasts were purchased from Clonetics Corp., San Diego, Calif. All materials for cell culture were purchased from Life Technologies, N.Y. Cells were maintained in DMEM with 10% fetal bovine serum and used in passages 5-10, Confluent 96-well plates containing fibroblasts were treated with test materials (0.2 to 20 mM) in serum-free medium for 48 hours. […] This was carried out in a BioDot SF apparatus according to the manufacturer's instructions (BioRad Labs, CA) and the blot was developed using a Vectastain Kit (PK6104, Vector Labs, CA) as per the manufacturer's directions. Color intensity was quantitated using an Ultroscan XL densitometer (Pharmacia LKB). Fold increase was calculated as (density of treated)/untreated.

The subject of data set [2] is Normal human epidermal keratinocytes (NHEK). Nature of the data set: Keratinocyte proliferation (DNA content, fluorometric). It is filed as cell-based.
Procedure: Normal human epidermal keratinocytes (NHEK) derived from neonatal foreskin were used for all experiments. Media were purchased from Clonetics Corp., San Diego, Calif. Cell stocks frozen in passage 2 were grown in Keratinocyte Growth Medium (KGM) and passaged when 70-80% confluent. Cells were seeded in 96 well plates (Corning) at a density of 7500 cells/well in KGM. After 24 hours, cells were rinsed and dosed with test compounds in 200 μl of Keratinocyte Basal Medium (KBM). Plates were incubated for three days at 37° C., 5% CO2. Cell proliferation was estimated by assaying for DNA content by a fluorometric method described by Rago et al. (Analytical Biochemistry, 191:31-34, 1990). Medium was removed and cells were rinsed with phosphate buffered saline solution. 100 μl of sterile distilled water was added to each well and plates were frozen at -70° C. for one and a half hours. Plates were thawed for one hour at which time 100 μl of a 20 ug/ml solution of Bisbenzimide H33258 fluorochrome (Calbiochem Corp., La Jolla, Calif.) was added to each well. The fluorochrome was prepared just prior to use in 10 mM Tris, 1 mM EDTA, 4M NaCl, pH 7.4. Plates were read in a Millipore Cytofluor fluorescent plate reader to quantify DNA (excitation 360 nm, emission 460 nm). Percent increase over control was calculated from blank-corrected readings as (treated-untreated)/(untreated)*100%.
Data set [3] concerns Fibroblast Lactate Dehydrogenase. Briefly: Lactate dehydrogenase (LDH) inhibition, fibroblast lysate. The data set is classed as biochemical, human. How it is done: All reagents were purchased from Sigma Chemical Co., St. Louis, Mo, USA. Sigma procedure No. 500 was modified for our purposes. One mL of pyruvate substrate (Sigma […]-1, pH=7.5) was added to a vial containing 1 mg NADH (Sigma 340-101). In a 96-well plate, the following components were added to each test well: 10 μl pyruvate/NADH mixture, and 10 μl cell lysate. For preparation of cell lysates, neonatal human keratinocytes or fibroblasts (Clonetic Corp., San Diego, Calif.) were cultured in tissue culture plates (Corning, USA). Cells were scraped in PBS (pH=7.4) and this solution was used as a source of L-lactate dehydrogenase. If such cell lysate was not available, a commercial preparation of L-lactic dehydrogenase (E.C.1.1.1.27), Sigma L9889, from porcine heart could be used in place of the cell lysate. For positive control, the inhibitor was replaced with 10 μl of PBS. For blank determination, the lysate or enzyme was replaced with […]. After mixing, the plate was incubated for 30 minutes at 37° C. Then 20 μl of color reagent (Sigma 505-2) was added to each well. After 20 minutes at room temperature, 150 μI of 0.4N NaOH was added, and the plate was read for absorbance at 490 nm in a Dynatech MR 7000 Microplate Reader. To calculate % inhibition, the control activity (CA) was first determined by subtracting the absorbance of the positive control from the blank, Then the activity in the presence of the inhibitor (IA) was calculated by subtracting the appropriate absorbance from the blank. %/, Inhibition was then calculated as: ((CA-IA)/CA)* 100%/.

As for `CC(=O)O` [Acetate], the “Maximum fold over Control (collagen synthesis)” value (from here on “Maximum fold over Control”) in data set [1] amounted to 2.0 fold.
As to `O=C(O)CC(O)(CC(=O)O)C(=O)O` [Citrate], in data set [2] (Homo sapiens, NHEK, 72 h, read-out: % Increase Over Control (keratinocyte proliferation), Table 6, citrate 0.01 mM), the activation at 10 µM is 25%. The activation at 100 µM in data set [2] (Homo sapiens, NHEK, 72 h, read-out: % Increase Over Control (keratinocyte proliferation), Table 6, citrate 0.1 mM) was determined as 40%. In addition, in data set [2] (Homo sapiens, NHEK, 72 h, read-out: % Increase Over Control (keratinocyte proliferation), Table 6, citrate 0.15 mM), the activation at 150 µM amounted to 18%. For the same molecule, in data set [2] (Homo sapiens, NHEK, 72 h, read-out: % Increase Over Control (keratinocyte proliferation), Table 6, citrate 0.3 mM), the activation at 300 µM amounted to 39%. For the same molecule, in data set [2] (Homo sapiens, NHEK, 72 h, read-out: % Increase Over Control (keratinocyte proliferation), Table 6, citrate 0.6 mM), the activation at 600 µM came out at 35%. For the same molecule, the activation at 1000 µM in data set [2] (Homo sapiens, NHEK, 72 h, read-out: % Increase Over Control (keratinocyte proliferation), Table 6, citrate 1.0 mM) is 20%. For the same molecule, the activation at 1250 µM in data set [2] (Homo sapiens, NHEK, 72 h, read-out: % Increase Over Control (keratinocyte proliferation), Table 6, citrate 1.25 mM) turned out to be 18%. Also, the activation at 2500 µM in data set [2] (Homo sapiens, NHEK, 72 h, read-out: % Increase Over Control (keratinocyte proliferation), Table 6, citrate 2.5 mM) is 0%. Moreover, the activation at 5000 µM in data set [2] (Homo sapiens, NHEK, 72 h, read-out: % Increase Over Control (keratinocyte proliferation), Table 6, citrate 5.0 mM) turned out to be 0%. In data set [2] (Homo sapiens, NHEK, 72 h, read-out: % Increase Over Control (keratinocyte proliferation), Table 6, citrate 10 mM), the activation at 10000 µM was found to be 0%. Besides, the activation at 2 µM in data set [2] (Homo sapiens, NHEK, 72 h, read-out: % Increase Over Control (keratinocyte proliferation), Table 7, 0.002 mM) was 22%. Further, the activation at 20 µM in data set [2] (Homo sapiens, NHEK, 72 h, read-out: % Increase Over Control (keratinocyte proliferation), Table 7, 0.02 mM) is 31%. Moreover, the activation at 20000 µM in data set [2] (Homo sapiens, NHEK, 72 h, read-out: % Increase Over Control (keratinocyte proliferation), Table 7, 20 mM) is 0%.
Take `C[C@@H](O)C(=O)O` [D-lactate]: the “% Inhibition” value in data set [3] (0.625 mM), in data set [3] (1.25 mM), in data set [3] (2.5 mM) and in data set [3] (5 mM) was 0% in each case.
On to `N[C@@H](CCC(=O)O)C(=O)O` [Glutamate], for which the “Maximum fold over Control” value in data set [1] worked out at 3.6 fold.
Turning to `NCC(=O)O` [Glycinate], the “% Inhibition” value in data set [3] (0.625 mM), in data set [3] (1.25 mM), in data set [3] (2.5 mM) and in data set [3] (5 mM) was 0% each time.
On to `O=C(O)CO` [Glycolate], for which the “% Inhibition” value in data set [3] (0.625 mM), in data set [3] (1.25 mM), in data set [3] (2.5 mM) and in data set [3] (5 mM) was 0% each time.
Consider `O=C(O)CC(C(=O)O)C(O)C(=O)O` (stereo not shown) [Isocitrate], for which, in data set [2] (Homo sapiens, NHEK, 72 h, read-out: % Increase Over Control (keratinocyte proliferation), Table 8, isocitrate 0.0002 mM), the activation at 0.2 µM worked out at 0%. Besides, in data set [2] (Homo sapiens, NHEK, 72 h, read-out: % Increase Over Control (keratinocyte proliferation), Table 8, isocitrate 0.002 mM), the activation at 2 µM stood at 39%. Besides, the activation at 156 µM in data set [2] (Homo sapiens, NHEK, 72 h, read-out: % Increase Over Control (keratinocyte proliferation), Table 8, isocitrate 0.156 mM) came to 32%. For the same molecule, the activation at 313 µM in data set [2] (Homo sapiens, NHEK, 72 h, read-out: % Increase Over Control (keratinocyte proliferation), Table 8, isocitrate 0.313 mM) turned out to be 40%. Further, the activation at 625 µM in data set [2] (Homo sapiens, NHEK, 72 h, read-out: % Increase Over Control (keratinocyte proliferation), Table 8, isocitrate 0.625 mM) turned out to be 32%. Also, the activation at 1250 µM in data set [2] (Homo sapiens, NHEK, 72 h, read-out: % Increase Over Control (keratinocyte proliferation), Table 8, isocitrate 1.25 mM) was 40%. Moreover, the activation at 2000 µM in data set [2] (Homo sapiens, NHEK, 72 h, read-out: % Increase Over Control (keratinocyte proliferation), Table 8, isocitrate 2.0 mM) was 40%. In addition, the activation at 2500 µM in data set [2] (Homo sapiens, NHEK, 72 h, read-out: % Increase Over Control (keratinocyte proliferation), Table 8, isocitrate 2.5 mM) stood at 32%. Besides, in data set [2] (Homo sapiens, NHEK, 72 h, read-out: % Increase Over Control (keratinocyte proliferation), Table 8, isocitrate 5.0 mM), the activation at 5000 µM worked out at 18%. In addition, the activation at 10000 µM in data set [2] (Homo sapiens, NHEK, 72 h, read-out: % Increase Over Control (keratinocyte proliferation), Table 8, isocitrate 10 mM) turned out to be 0%. Also, the “% Increase Over Control (keratinocyte proliferation)” value in data set [2] (Table 8, isocitrate 0.002 mM) came to 20%; in data set [2] (Table 8, isocitrate 2.0 mM), 30%.
Consider `O=C(O)CCC(=O)C(=O)O` [Ketoglutarate], for which the “Maximum fold over Control” value in data set [1] worked out at 2.2 fold.
As to `O=C(O)C[C@H](O)C(=O)O` [L-Malate], the “% Inhibition” value in data set [3] (0.625 mM), in data set [3] (1.25 mM), in data set [3] (2.5 mM) and in data set [3] (5 mM) was 0% each time. Further, in data set [2] (Homo sapiens, NHEK, 72 h, read-out: % Increase Over Control (keratinocyte proliferation), Table 5, L-malate 0.002 mM), the activation at 2 µM came out at 34%. The activation at 20 µM in data set [2] (Homo sapiens, NHEK, 72 h, read-out: % Increase Over Control (keratinocyte proliferation), Table 5, L-malate 0.02 mM) worked out at 27%. In addition, the activation at 200 µM in data set [2] (Homo sapiens, NHEK, 72 h, read-out: % Increase Over Control (keratinocyte proliferation), Table 5, L-malate 0.2 mM) worked out at 36%. Further, in data set [2] (Table 5, L-malate 0.2 mM), the “% Increase Over Control (keratinocyte proliferation)” value was 19% and 29%. The “% Increase Over Control” value in data set [2] (Table 12, oxamate 0, malate 0.156 mM) was found to be 33%; in data set [2] (Table 12, oxamate 0, malate 0.313 mM), 29%; in data set [2] (Table 12, oxamate 0, malate 0.625 mM), 36%; in data set [2] (Table 12, oxamate 0, malate 1.25 mM) it was 25%; in data set [2] (Table 12, oxamate 0, malate 2.5 mM), 39%; in data set [2] (Table 12, oxamate 0, malate 5.0 mM), 20%.
Consider `C[C@H](O)C(=O)O` [L-lactate], for which the “% Inhibition” value in data set [3] (0.625 mM), in data set [3] (1.25 mM), in data set [3] (2.5 mM) and in data set [3] (5 mM) was 0% in each case.
On to `O=C(O)CC(=O)O` [Malonate], for which the “% Inhibition” value in data set [3] (0.625 mM), in data set [3] (1.25 mM), in data set [3] (2.5 mM) and in data set [3] (5 mM) was 0% in each case.
In the case of `c1cn[nH]c1` [Pyrazole], the “% Inhibition” value in data set [3] (0.625 mM), in data set [3] (1.25 mM), in data set [3] (2.5 mM) and in data set [3] (5 mM) was 0% throughout.
As for `CC(=O)C(=O)O` [Pyruvate], the “% Increase Over Control” value in data set [2] (Table 11, oxamate 0, pyruvate 0.156 mM) amounted to 2%; in data set [2] (Table 11, oxamate 0, pyruvate 0.313 mM) it was 0%; in data set [2] (Table 11, oxamate 0, pyruvate 0.625 mM), 3%; in data set [2] (Table 11, oxamate 0, pyruvate 1.25 mM), 0%; in data set [2] (Table 11, oxamate 0, pyruvate 2.5 mM), 7%; in data set [2] (Table 11, oxamate 0, pyruvate 5.0 mM), 0%.
Consider `O=C(O)CCC(=O)O` [Succinate], for which the “Maximum fold over Control” value in data set [1] stood at 2.8 fold.
As to `CC(S)C(=O)O` (stereo not shown) [Thio-Lactate, Thiolactate], in data set [2] (Homo sapiens, NHEK, 72 h, Table 4, 0.313 mM, read-out: % increase over control (keratinocyte proliferation)), the activation at 313 µM was determined as 9%. For the same molecule, the activation at 625 µM in data set [2] (Homo sapiens, NHEK, 72 h, Table 4, 0.625 mM, read-out: % increase over control (keratinocyte proliferation)) was 29%. Moreover, the activation at 1250 µM in data set [2] (Homo sapiens, NHEK, 72 h, Table 4, 1.25 mM, read-out: % increase over control (keratinocyte proliferation)) came out at 27%. Moreover, the activation at 2500 µM in data set [2] (Homo sapiens, NHEK, 72 h, Table 4, 2.5 mM, read-out: % increase over control (keratinocyte proliferation)) was 5%. Moreover, the activation at 5000 µM in data set [2] (Homo sapiens, NHEK, 72 h, Table 4, 5 mM, read-out: % increase over control (keratinocyte proliferation)) came to 0%.
For Methyl pyrazole, the “% Inhibition” value in data set [3] (0.625 mM), in data set [3] (1.25 mM), in data set [3] (2.5 mM) and in data set [3] (5 mM) was 0% each time.

These data come from patent US5853742A, “Cosmetic compositions containing lactate dehydrogenase inhibitors” (priority 1997, dated 1998).
